Data published in patent US10131652B2, “Pyrimidinyloxy benzene derivatives as herbicides” (E. I. DU PONT DE NEMOURS AND COMPANY, priority 2014, dated 2018).
Like-named read-outs stand apart in the source and are kept apart here.

Legend:
Assay type in all cases: in vivo
[1] = tested on: Italian ryegrass (Lolium multiflorum); experiment: Test B pre-/postemergence plant response; conditions: 1000 g ai/ha, 0 to 100 scale (0 no effect, 100 complete control)
Outline: (§1)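 Scoring used a 0–100 scale (100 = complete control) by visual comparison with untreated plants after approximately 10 days in the greenhouse. Compounds, in surfactant-containing non-phytotoxic solvent, were sprayed onto soil at planting or onto 2–10 cm seedlings.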

[2] = tested on: kochia (Kochia scoparia); experiment: Test B pre-/postemergence plant response; conditions: 1000 g ai/ha, 0 to 100 scale (0 no effect, 100 complete control)
Outline: as §1

[3] = tested on: ragweed (common ragweed, Ambrosia elatior); experiment: Test B pre-/postemergence plant response; conditions: 1000 g ai/ha, 0 to 100 scale (0 no effect, 100 complete control)
Outline: as §1

[4] = tested on: Italian ryegrass (Lolium multiflorum); experiment: Test D pre-/postemergence plant response; conditions: Lolium multiflorum; for pest or weed control at 16 g/ha: 16 g ai/ha; for pest or weed control at 31 g/ha: 31 g ai/ha; for pest or weed control at 62 g/ha: 62 g ai/ha; for pest or weed control at 125 g/ha: 125 g ai/ha
Outline: (§2)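 Seeds were planted in a loam and sand blend and sprayed preemergence. In parallel, seedlings grown in peat moss/vermiculite medium were sprayed postemergence at 2 to 18 cm height. Both used a surfactant-containing non-phytotoxic solvent. Greenhouse ratings at 13 to 15 days used a 0–100 control scale.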

[5] = tested on: barnyardgrass (Echinochloa crus-galli); experiment: Test D pre-/postemergence plant response; conditions: Echinochloa crus-galli; for pest or weed control at 16 g/ha: 16 g ai/ha; for pest or weed control at 16 g/ha / pest or weed control at 31 g/ha: scale 0 to 100 (0 no effect, 100 complete control); for pest or weed control at 31 g/ha: 31 g ai/ha; for pest or weed control at 62 g/ha: 62 g ai/ha; for pest or weed control at 125 g/ha: 125 g ai/ha
Outline: as §2

[6] = tested on: blackgrass (Alopecurus myosuroides); experiment: Test D pre-/postemergence plant response; conditions: Alopecurus myosuroides; for pest or weed control at 16 g/ha: 16 g ai/ha; for pest or weed control at 31 g/ha: 31 g ai/ha; for pest or weed control at 62 g/ha: 62 g ai/ha; for pest or weed control at 125 g/ha: 125 g ai/ha
Outline: as §2

[7] = tested on: corn (Zea mays); experiment: Test D pre-/postemergence plant response; conditions: Zea mays; for Corn plant response rating (crop injury, 0 = no effect, 100 = complete kill) at 62 g/ha: 62 g ai/ha
Outline: as §2

[8] = tested on: giant foxtail (Setaria faberii); experiment: Test D pre-/postemergence plant response; conditions: Setaria faberi; for pest or weed control at 16 g/ha: 16 g ai/ha; for pest or weed control at 31 g/ha: 31 g ai/ha; for pest or weed control at 62 g/ha: 62 g ai/ha; for pest or weed control at 125 g/ha: 125 g ai/ha
Outline: as §2

[9] = tested on: lambsquarters (Chenopodium album); experiment: Test D pre-/postemergence plant response; conditions: Chenopodium album; for pest or weed control at 125 g/ha: 125 g ai/ha
Outline: as §2

[10] = post-emergence, Postemergence, scale 0 to 100 (0 no effect, 100 complete control), read-out: Ryegrass, Italian plant response rating
[11] = post-emergence, Postemergence, scale 0 to 100, 0 no effect, 100 complete control, read-out: Plant response rating, Ryegrass, Italian
[12] = pre-emergence, Preemergence, scale 0 to 100 (0 no effect, 100 complete control), read-out: Plant response rating, Ryegrass, Italian
[13] = post-emergence, Postemergence, read-out: Barnyardgrass plant response rating
[14] = post-emergence, Postemergence, scale 0 to 100, 0 no effect, 100 complete control, read-out: Plant response rating, Barnyardgrass
[15] = pre-emergence, Preemergence, read-out: Plant response rating (scale 0 to 100), Barnyardgrass
[16] = pre-emergence, Preemergence, read-out: Plant response rating, Barnyardgrass
[17] = post-emergence, Postemergence, scale 0 to 100 (0 no effect, 100 complete control), read-out: Blackgrass plant response rating
[18] = post-emergence, Postemergence, scale 0 to 100, 0 no effect, 100 complete control, read-out: Plant response rating, Blackgrass
[19] = pre-emergence, Preemergence, scale 0 to 100 (0 no effect, 100 complete control), read-out: Plant response rating, Blackgrass
[20] = post-emergence, Postemergence, scale 0 to 100 (0 no effect, 100 complete control), read-out: Foxtail, Giant plant response rating
[21] = post-emergence, Postemergence, scale 0 to 100, 0 no effect, 100 complete control, read-out: Plant response rating, Foxtail, Giant
[22] = pre-emergence, Preemergence, scale 0 to 100 (0 no effect, 100 complete control), read-out: Plant response rating, Foxtail, Giant

With `Fc1cccc(Oc2ncc(Cl)cn2)c1-c1cc(C(F)F)on1` [Compound 55, 5-chloro-2-[2-[5-(difluoromethyl)-3-isoxazolyl]-3-fluorophenoxy]pyrimidine] the “Plant response rating, Ryegrass, Italian” value ([1]; Postemergence) was 100, the “Plant response rating, Ryegrass, Italian” value ([1]; Preemergence) was 100 and the “Plant response rating, Kochia” value ([2]; Postemergence) was 100. The “Plant response rating, Kochia” value ([2]; Preemergence) was 100, the “Plant response rating, Ragweed” value ([3]; Postemergence) was 100 and the “Plant response rating, Ragweed” value ([3]; Preemergence) was 100. The pest or weed control at 16 g/ha [4, 10] was 0%, the pest or weed control at 31 g/ha [4, 10] was 5% and the pest or weed control at 62 g/ha [4, 11] was 10%. For the same molecule, the pest or weed control at 125 g/ha [4, 11] was 15%, the pest or weed control at 125 g/ha ([4]; pre-emergence, Preemergence, read-out: Plant response rating (scale 0 to 100), Ryegrass, Italian) was 95% and the pest or weed control at 16 g/ha [4, 12] was 15%. The pest or weed control at 31 g/ha [4, 12] was 35%, the pest or weed control at 62 g/ha [4, 12] was 85% and the pest or weed control at 16 g/ha [5, 13] was 5%. The pest or weed control at 31 g/ha [5, 13] was 10%, the pest or weed control at 62 g/ha [5, 14] was 15% and the pest or weed control at 125 g/ha [5, 14] was 15%. The pest or weed control at 62 g/ha [5, 15] was 100%, the pest or weed control at 125 g/ha [5, 15] was 100% and the pest or weed control at 16 g/ha [5, 16] was 25%. It also gave a pest or weed control at 31 g/ha [5, 16] of 85%, a pest or weed control at 16 g/ha [6, 17] of 5% and a pest or weed control at 31 g/ha [6, 17] of 10%. The pest or weed control at 62 g/ha [6, 18] was 30%, the pest or weed control at 125 g/ha [6, 18] was 50% and the pest or weed control at 125 g/ha ([6]; pre-emergence, Preemergence, read-out: Plant response rating (scale 0 to 100), Blackgrass) was 90%. It also gave a pest or weed control at 16 g/ha [6, 19] of 15%, a pest or weed control at 31 g/ha [6, 19] of 90% and a pest or weed control at 62 g/ha [6, 19] of 90%. It also gave a plant injury at 16 g/ha ([7]; post-emergence, Postemergence, 16 g ai/ha, scale 0 to 100 (0 no effect, 100 complete control), read-out: Corn plant response rating) of 10%, a plant injury at 31 g/ha ([7]; post-emergence, Postemergence, 31 g ai/ha, scale 0 to 100 (0 no effect, 100 complete control), read-out: Corn plant response rating) of 10% and a Corn plant response rating (crop injury, 0 = no effect, 100 = complete kill) at 62 g/ha ([7]; post-emergence, Postemergence, scale 0 to 100, 0 no effect, 100 complete control) of 10%. It also gave a Corn plant response rating (crop injury, 0 = no effect, 100 = complete kill) at 125 g/ha ([7]; post-emergence, Postemergence, 125 g ai/ha, scale 0 to 100, 0 no effect, 100 complete control) of 20%, a plant injury at 125 g/ha ([7]; pre-emergence, Preemergence, 125 g ai/ha, read-out: Plant response rating (scale 0 to 100), Corn) of 80% and a Corn plant response rating (crop injury, 0 = no effect, 100 = complete kill) at 16 g/ha ([7]; pre-emergence, Preemergence, 16 g ai/ha, scale 0 to 100 (0 no effect, 100 complete control)) of 5%. The Corn plant response rating (crop injury, 0 = no effect, 100 = complete kill) at 31 g/ha ([7]; pre-emergence, Preemergence, 31 g ai/ha, scale 0 to 100 (0 no effect, 100 complete control)) was 20%, the Corn plant response rating (crop injury, 0 = no effect, 100 = complete kill) at 62 g/ha ([7]; pre-emergence, Preemergence, scale 0 to 100 (0 no effect, 100 complete control)) was 35% and the pest or weed control at 16 g/ha [8, 20] was 40%. It also gave a pest or weed control at 31 g/ha [8, 20] of 50%, a pest or weed control at 62 g/ha [8, 21] of 40% and a pest or weed control at 125 g/ha [8, 21] of 75%. It also gave a pest or weed control at 125 g/ha ([8]; pre-emergence, Preemergence, read-out: Plant response rating (scale 0 to 100), Foxtail, Giant) of 100%, a pest or weed control at 16 g/ha [8, 22] of 100% and a pest or weed control at 31 g/ha [8, 22] of 100%. It also gave a pest or weed control at 62 g/ha [8, 22] of 100%, a pest or weed control at 16 g/ha ([9]; post-emergence, Postemergence, 16 g ai/ha, scale 0 to 100 (0 no effect, 100 complete control), read-out: Lambsquarters plant response rating) of 75% and a pest or weed control at 31 g/ha ([9]; post-emergence, Postemergence, 31 g ai/ha, scale 0 to 100 (0 no effect, 100 complete control), read-out: Lambsquarters plant response rating) of 85%. The pest or weed control at 62 g/ha ([9]; post-emergence, Postemergence, 62 g ai/ha, scale 0 to 100, 0 no effect, 100 complete control, read-out: Plant response rating, Lambsquarters) was 98%, the pest or weed control at 125 g/ha ([9]; post-emergence, Postemergence, scale 0 to 100, 0 no effect, 100 complete control, read-out: Plant response rating, Lambsquarters) was 98% and the pest or weed control at 125 g/ha ([9]; pre-emergence, Preemergence, read-out: Plant response rating (scale 0 to 100), Lambsquarters) was 98%.
